In US20100267561A1, “HERBICIDAL PYRIDAZINONE DERIVATIVES” (priority 2007, published 2010):

How the values were obtained:
Experiment in all cases: Test B pre-/postemergence plant response
Assay type in all cases: in vivo
[1] = test system: Italian ryegrass (Lolium multiflorum)
Method in brief: (§1)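 Seeds were sown and sprayed preemergence, while plants at 2 to 18 cm (1- to 4-leaf stage) got postemergence sprays. Compounds were formulated in a non-phytotoxic solvent mixture with surfactant. After 13 to 15 days in a greenhouse, injury was rated visually against untreated controls, 0 (no effect) to 100 (complete control).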

[2] = test system: pigweed (Amaranthus retroflexus)
Method in brief: as §1

kochia (Kochia scoparia) = details: for Kochia plant response rating: postemergence, 0-100 scale; for Plant response rating, Kochia: Postemergence
Method in brief: as §1

[3] = test system: morningglory (Ipomoea coccinea)
Method in brief: as §1

soybean (Glycine max) = details: for Soybean plant response rating: postemergence, 0-100 scale; for Plant response rating, Soybean: Postemergence
Method in brief: as §1

[4] = test system: surinam grass (Brachiaria decumbens)
Method in brief: as §1

[5] = test system: woolly cupgrass (Eriochloa villosa)
Method in brief: as §1

[6] = test system: eastern black (E.B.) nightshade (Solanum ptycanthum); details: Preemergence; for Nightshade, E. B. plant response rating: scale 0 to 100
Method in brief: as §1

[7] = test system: green foxtail (Setaria viridis)
Method in brief: as §1

[8] = test system: Russian thistle (Salsola iberica); details: Preemergence; for Russian Thistle plant response rating: scale 0 to 100
Method in brief: as §1

corn (Zea mays) = test system: corn (Zea mays)
Method in brief: as §1

[9] = test system: velvetleaf (Abutilon theophrasti)
Method in brief: as §1

[10] = test system: downy bromegrass (Bromus tectorum); details: for Bromegrass, Downy plant response rating: 8 g ai/ha
Method in brief: as §1

[11] = test system: bermudagrass (Cynodon dactylon); details: for Bermudagrass plant response rating: 8 g ai/ha
Method in brief: as §1

[12] = 8 g ai/ha, postemergence, 0-100 scale
[13] = 16 g ai/ha, postemergence, 0-100 scale
[14] = Postemergence, 31 g ai/ha, scale 0 to 100
[15] = Postemergence, 62 g ai/ha, scale 0 to 100, 0 no effect, 100 complete control
[16] = Preemergence, 31 g ai/ha, scale 0 to 100 (0 no effect, 100 complete control)
[17] = Preemergence, 62 g ai/ha, 0 to 100 scale, 0 no effect, 100 complete control
[18] = Preemergence, 8 g ai/ha, scale 0 to 100
[19] = Preemergence, 16 g ai/ha, scale 0 to 100
[20] = 62 g ai/ha, scale 0 to 100, 0 no effect, 100 complete control
[21] = Postemergence, 16 g ai/ha, scale 0 to 100
[22] = 31 g ai/ha, scale 0 to 100 (0 no effect, 100 complete control)
[23] = 62 g ai/ha, 0 to 100 scale, 0 no effect, 100 complete control
[24] = Preemergence, 16 g ai/ha, scale 0 to 100 (0 no effect, 100 complete control)

CCc1cc(-c2ccc(C(F)(F)F)cc2)nn1-c1c(O)cnn(CC)c1=O [Compound 67]
Ryegrass, Italian plant response rating [1, 12]: 100 | Ryegrass, Italian plant response rating [1, 13]: 100 | Plant response rating, Ryegrass, Italian [1, 14]: 100 | Plant response rating, Ryegrass, Italian [1, 15]: 100 | Plant response rating, Ryegrass, Italian [1, 16]: 100 | Plant response rating, Ryegrass, Italian [1, 17]: 100 | Ryegrass, Italian plant response rating [1, 18]: 100 | Ryegrass, Italian plant response rating [1, 19]: 100 | Pigweed plant response rating [2, 12]: 0 | Pigweed plant response rating [2, 13]: 0 | Plant response rating, Pigweed [2, 14]: 0 | Plant response rating, Pigweed [2, 15]: 0 | Plant response rating, Pigweed [2, 16]: 0 | Plant response rating, Pigweed [2, 17]: 0 | Pigweed plant response rating [2, 18]: 0 | Pigweed plant response rating [2, 19]: 0 | Kochia plant response rating (kochia (Kochia scoparia); 8 g ai/ha): 0 | Kochia plant response rating (kochia (Kochia scoparia); 16 g ai/ha): 0 | Plant response rating, Kochia (kochia (Kochia scoparia); 31 g ai/ha, scale 0 to 100): 0 | Plant response rating, Kochia (kochia (Kochia scoparia); [20]): 0 | Morningglory plant response rating [3, 12]: 0 | Morningglory plant response rating [3, 13]: 0 | Plant response rating, Morningglory [3, 14]: 0 | Plant response rating, Morningglory [3, 15]: 0 | Plant response rating, Morningglory [3, 16]: 0 | Plant response rating, Morningglory [3, 17]: 0 | Morningglory plant response rating [3, 18]: 0 | Morningglory plant response rating [3, 19]: 0 | Soybean plant response rating (soybean (Glycine max); 8 g ai/ha): 0 | Soybean plant response rating (soybean (Glycine max); 16 g ai/ha): 0 | Plant response rating, Soybean (soybean (Glycine max); 31 g ai/ha, scale 0 to 100): 0 | Plant response rating, Soybean (soybean (Glycine max); [20]): 15 | Surinam Grass plant response rating [4, 12]: 70 | Surinam Grass plant response rating [4, 13]: 85 | Plant response rating, Surinam Grass [4, 14]: 100 | Plant response rating, Surinam Grass [4, 15]: 100 | Plant response rating, Surinam Grass [4, 16]: 0 | Plant response rating, Surinam Grass [4, 17]: 55 | Surinam Grass plant response rating [4, 18]: 0 | Surinam Grass plant response rating [4, 19]: 0 | Cupgrass, Woolly plant response rating [5, 12]: 90 | Plant response rating, Cupgrass, Woolly [5, 21]: 100 | Plant response rating, Cupgrass, Woolly [5, 14]: 100 | Plant response rating, Cupgrass, Woolly [5, 15]: 100 | Plant response rating, Cupgrass, Woolly [5, 16]: 0 | Plant response rating, Cupgrass, Woolly [5, 17]: 0 | Cupgrass, Woolly plant response rating [5, 18]: 0 | Cupgrass, Woolly plant response rating [5, 19]: 0 | Plant response rating, Nightshade, E. B. [6, 22]: 0 | Plant response rating, Nightshade, E. B. [6, 23]: 0 | Nightshade, E. B. plant response rating ([6]; 8 g ai/ha): 0 | Nightshade, E. B. plant response rating ([6]; 16 g ai/ha): 0 | Foxtail, Green plant response rating [7, 12]: 65 | Plant response rating, Foxtail, Green [7, 21]: 70 | Plant response rating, Foxtail, Green [7, 14]: 98 | Plant response rating, Foxtail, Green [7, 15]: 100 | Plant response rating, Foxtail, Green [7, 16]: 100 | Plant response rating, Foxtail, Green [7, 17]: 100 | Foxtail, Green plant response rating [7, 18]: 100 | Foxtail, Green plant response rating [7, 19]: 100 | Plant response rating, Russian Thistle [8, 22]: 0 | Plant response rating, Russian Thistle [8, 23]: 0 | Russian Thistle plant response rating ([8]; 8 g ai/ha): 0 | Russian Thistle plant response rating ([8]; 16 g ai/ha): 0 | Corn plant response rating (corn (Zea mays); [12]): 75 | Plant response rating, Corn (corn (Zea mays); [21]): 90 | Plant response rating, Corn (corn (Zea mays); [14]): 100 | Plant response rating, Corn (corn (Zea mays); [15]): 100 | Plant response rating, Corn (corn (Zea mays); [16]): 100 | Plant response rating, Corn (corn (Zea mays); [17]): 100 | Corn plant response rating (corn (Zea mays); [18]): 60 | Corn plant response rating (corn (Zea mays); [19]): 98 | Velvetleaf plant response rating [9, 12]: 0 | Velvetleaf plant response rating [9, 13]: 0 | Plant response rating, Velvetleaf [9, 14]: 0 | Plant response rating, Velvetleaf [9, 15]: 0 | Plant response rating, Velvetleaf [9, 16]: 0 | Plant response rating, Velvetleaf [9, 17]: 0 | Velvetleaf plant response rating [9, 18]: 0 | Velvetleaf plant response rating [9, 19]: 0 | Bromegrass, Downy plant response rating ([10]; postemergence, 0-100 scale): 55 | Plant response rating, Bromegrass, Downy [10, 21]: 80 | Plant response rating, Bromegrass, Downy [10, 14]: 80 | Plant response rating, Bromegrass, Downy [10, 15]: 100 | Plant response rating, Bromegrass, Downy [10, 24]: 90 | Plant response rating, Bromegrass, Downy [10, 16]: 100 | Plant response rating, Bromegrass, Downy [10, 17]: 100 | Bromegrass, Downy plant response rating ([10]; Preemergence, scale 0 to 100): 50 | Bermudagrass plant response rating ([11]; postemergence, 0-100 scale): 0 | Plant response rating, Bermudagrass [11, 21]: 0 | Plant response rating, Bermudagrass [11, 14]: 60 | Plant response rating, Bermudagrass [11, 15]: 75 | Bermudagrass plant response rating ([11]; Preemergence, scale 0 to 100 (0 no effect, 100 complete control)): 0 | Plant response rating, Bermudagrass [11, 24]: 0 | Plant response rating, Bermudagrass [11, 16]: 0 | Plant response rating, Bermudagrass [11, 17]: 0
